This passage reports GI50 and IC50 results from ChEMBL document CHEMBL3085635, “Synthesis of structurally diverse benzosuberene analogues and their biological evaluation as anti-cancer agents” (Bioorg Med Chem, 2013).

The test system of one assay is DU-145. As to the kind of experiment: Cytotoxicity against human DU145 cells after 48 hrs by SRB assay. Type of assay: functional.
The test system of a further assay is NCI-H460. As to the kind of experiment: Cytotoxicity against human NCI-H460 cells after 48 hrs by SRB assay. Type of assay: functional.
Another assay relates to SK-OV-3. In words: Cytotoxicity against human SKOV3 cells after 48 hrs by SRB assay. It is filed as functional.
The nature of assay [1]: Inhibition of calf brain tubulin polymerization after 15 mins by UV-visible spectrophotometry. Details: species or system Bos taurus.

With `COc1ccc2c(c1NC(=O)[C@@H](N)CO)CCCC=C2c1cc(OC)c(OC)c(OC)c1` [listing 1 of 2 here], the concentration for 50% growth inhibition (GI50) in the assay with DU-145 was determined as 70500 nM; in the assay on NCI-H460 it was 39000 nM; with SK-OV-3, 36800 nM.
With `COc1ccc2c(c1O)CCCC=C2c1cc(OC)c(OC)c(OC)c1`, the IC50 in assay [1] came out at 1400 nM. Moreover, the 50% growth inhibitory concentration (GI50) in the assay on DU-145 (Homo sapiens, DU-145, 48 h) worked out at 0.0249 nM; in the assay on NCI-H460 (Homo sapiens, NCI-H460, 48 h) it was 0.0418 nM; in the assay with SK-OV-3 (Homo sapiens, SK-OV-3, 48 h), 0.0543 nM.
`COc1cc2c(c(OC)c1O)CCCC=C2c1cc(OC)c(OC)c(OC)c1`: in assay [1], the IC50 is > 40000 nM. Also, the concentration for 50% growth inhibition (GI50) turned out to be 15700 nM in the assay on DU-145 (Homo sapiens, DU-145, 48 h); 18000 nM in the assay with NCI-H460 (Homo sapiens, NCI-H460, 48 h); 7130 nM in the assay on SK-OV-3 (Homo sapiens, SK-OV-3, 48 h).
For `COc1ccc(/C=C\c2cc(OC)c(OC)c(OC)c2)cc1OP(=O)(O)O` [FOSBRETABULIN DISODIUM], in that order: > 40000 nM, 3.23 nM, 1.94 nM and 1.19 nM.
Take `COc1cc(C2=CCCCc3ccccc32)cc(OC)c1OC`: the concentration for half-maximal inhibition (IC50) in assay [1] was > 40000 nM. Also, the GI50 in the assay with DU-145 (Homo sapiens, DU-145, 48 h) is 22000 nM; in the assay on NCI-H460 (Homo sapiens, NCI-H460, 48 h), 32500 nM; in the assay with SK-OV-3 (Homo sapiens, SK-OV-3, 48 h), 19100 nM.
As for `COc1ccc2c(c1NC(=O)[C@@H](N)CO)CCCC=C2c1cc(OC)c(OC)c(OC)c1` [listing 2 of 2 here], the 50% growth inhibitory concentration (GI50) worked out at 69400 nM in the assay with DU-145 (Homo sapiens, DU-145, 48 h); 53800 nM in the assay with NCI-H460 (Homo sapiens, NCI-H460, 48 h); 35000 nM in the assay on SK-OV-3 (Homo sapiens, SK-OV-3, 48 h).
For `COc1ccc(C2=CCCCc3c2ccc(OC)c3O)cc1OC`, in assay [1], the concentration for half-maximal inhibition (IC50) was found to be 740 nM. Besides, the concentration for 50% growth inhibition (GI50) came out at 109 nM in the assay on DU-145 (Homo sapiens, DU-145, 48 h); 262 nM with NCI-H460 (Homo sapiens, NCI-H460, 48 h); 33.4 nM with SK-OV-3 (Homo sapiens, SK-OV-3, 48 h).
For `COc1ccc(C2=CCCCc3c2ccc(OC)c3OC)cc1OC`, in that order: > 40000 nM, 42500 nM, > 136000 nM and > 89500 nM.
For `COc1cc(C2=CCCCc3c2cc(OC)c(OC)c3O)cc(OC)c1OC`, in that order: > 40000 nM, 38400 nM, 25900 nM and 18100 nM.
On to `COc1ccc2c(c1N)CCCC=C2c1cc(OC)c(OC)c(OC)c1`, for which, in assay [1], the IC50 stood at 1200 nM. The 50% growth inhibitory concentration (GI50) in the assay on NCI-H460 (Homo sapiens, NCI-H460, 48 h) stood at 2.8 nM; in the assay with SK-OV-3 (Homo sapiens, SK-OV-3, 48 h), 0.102 nM.
On to `COc1ccc2c(c1Cl)CCCC=C2c1cc(OC)c(OC)c(OC)c1`, for which, in assay [1], the half-inhibitory concentration (IC50) amounted to 930 nM. The GI50 is 152 nM in the assay with DU-145 (Homo sapiens, DU-145, 48 h); 71.3 nM with NCI-H460 (Homo sapiens, NCI-H460, 48 h); 44.4 nM in the assay on SK-OV-3 (Homo sapiens, SK-OV-3, 48 h).
Consider `COc1ccc(/C=C\c2cc(OC)c(OC)c(OC)c2)cc1O` [COMBRETASTATIN A4], for which the GI50 in the assay on DU-145 (Homo sapiens, DU-145, 48 h) is 3.27 nM; in the assay on NCI-H460 (Homo sapiens, NCI-H460, 48 h), 2.23 nM; in the assay on SK-OV-3 (Homo sapiens, SK-OV-3, 48 h), 4.55 nM.
As to `COc1ccc2c(c1F)CCCC=C2c1cc(OC)c(OC)c(OC)c1`, the IC50 in assay [1] was determined as 890 nM. Further, the concentration for 50% growth inhibition (GI50) in the assay on DU-145 (Homo sapiens, DU-145, 48 h) was 18.9 nM; in the assay with NCI-H460 (Homo sapiens, NCI-H460, 48 h), 5.47 nM; in the assay on SK-OV-3 (Homo sapiens, SK-OV-3, 48 h) it was 7.51 nM.
For the molecule `COc1cc(C2=CCCCc3c2ccc(OC)c3OP(=O)(O)O)cc(OC)c1OC`, the half-inhibitory concentration (IC50) in assay [1] was > 40000 nM. Also, the GI50 with DU-145 (Homo sapiens, DU-145, 48 h) came to 9.51 nM; with NCI-H460 (Homo sapiens, NCI-H460, 48 h) it was 7.96 nM.
